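Where inhibition never reached the appropriate level, the endpoint shown equals the highest concentration tested. Otherwise, values were interpolated linearly from a five-concentration, 48-hour dose response in 96-well plates. TGI: concentration producing complete growth inhibition.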
Columns and labels:
Assay in all cases: DTP human tumour cell line panel, 48 h
ACHN renal = system: ACHN renal
CAKI-1 renal = system: CAKI-1 renal
HOP-92 NSCLC = system: HOP-92 NSCLC
MDA-MB-435 = system: MDA-MB-435
SW-620 colon = system: SW-620 colon
EKVX NSCLC = system: EKVX NSCLC
A498 renal = system: A498 renal
SK-MEL-5 melanoma = system: SK-MEL-5 melanoma
NCI-H460 lung = system: NCI-H460 lung
HT29 colon = system: HT29 colon
PC-3 prostate = system: PC-3 prostate
NCI-H522 lung = system: NCI-H522 lung
SNB-75 CNS = system: SNB-75 CNS
OVCAR-8 ovarian = system: OVCAR-8 ovarian
CCRF-CEM leukemia = system: CCRF-CEM leukemia
SR leukemia = system: SR leukemia
HL-60(TB) leukemia = system: HL-60(TB) leukemia
SNB-19 CNS = system: SNB-19 CNS
SF-539 CNS = system: SF-539 CNS
K-562 leukemia = system: K-562 leukemia
UACC-62 melanoma = system: UACC-62 melanoma
MDA-N = system: MDA-N
HS 578T breast = system: HS 578T breast
NCI-H226 lung = system: NCI-H226 lung
MOLT-4 leukemia = system: MOLT-4 leukemia
MCF7 breast = system: MCF7 breast
U251 CNS = system: U251 CNS
RXF 393 renal = system: RXF 393 renal
OVCAR-5 ovarian = system: OVCAR-5 ovarian
DU-145 prostate = system: DU-145 prostate
A549 NSCLC = system: A549 NSCLC
SK-MEL-28 melanoma = system: SK-MEL-28 melanoma
TK-10 renal = system: TK-10 renal
786-0 renal = system: 786-0 renal
SK-MEL-2 melanoma = system: SK-MEL-2 melanoma
HCT-116 colon = system: HCT-116 colon
HCT-15 colon = system: HCT-15 colon
LOX IMVI melanoma = system: LOX IMVI melanoma
SF-268 CNS = system: SF-268 CNS
NCI-H23 lung = system: NCI-H23 lung
UACC-257 melanoma = system: UACC-257 melanoma
HCC-2998 colon = system: HCC-2998 colon
SK-OV-3 ovarian = system: SK-OV-3 ovarian
SN12C renal = system: SN12C renal
IGROV1 ovarian = system: IGROV1 ovarian
HOP-62 NSCLC = system: HOP-62 NSCLC
M14 melanoma = system: M14 melanoma
MALME-3M melanoma = system: MALME-3M melanoma
OVCAR-4 ovarian = system: OVCAR-4 ovarian
COLO 205 colon = system: COLO 205 colon
T-47D breast = system: T-47D breast
SF-295 CNS = system: SF-295 CNS
OVCAR-3 ovarian = system: OVCAR-3 ovarian
KM12 colon = system: KM12 colon
NCI/ADR-RES ovarian = system: NCI/ADR-RES ovarian
MDA-MB-231 breast = system: MDA-MB-231 breast
UO-31 renal = system: UO-31 renal
RPMI-8226 leukemia = system: RPMI-8226 leukemia

## COc1cc2c(cc1OC)C1CCc3ccccc3CN1CC2 (stereo unspecified)
ACHN renal
  TGI: > 100 µM
CAKI-1 renal
  TGI: > 100 µM
HOP-92 NSCLC
  TGI: > 100 µM
MDA-MB-435
  TGI: > 100 µM
SW-620 colon
  TGI: > 100 µM
EKVX NSCLC
  TGI: > 100 µM
A498 renal
  TGI: > 100 µM
SK-MEL-5 melanoma
  TGI: > 100 µM
NCI-H460 lung
  TGI: > 100 µM
HT29 colon
  TGI: > 100 µM
PC-3 prostate
  TGI: > 100 µM
NCI-H522 lung
  TGI: > 100000 nM
SNB-75 CNS
  TGI: > 100 µM
OVCAR-8 ovarian
  TGI: > 100 µM
CCRF-CEM leukemia
  TGI: > 100 µM
SR leukemia
  TGI: > 100 µM
HL-60(TB) leukemia
  TGI: > 100 µM
SNB-19 CNS
  TGI: > 100 µM
SF-539 CNS
  TGI: > 100 µM
K-562 leukemia
  TGI: > 100 µM
UACC-62 melanoma
  TGI: > 100 µM
MDA-N
  TGI: > 100 µM
HS 578T breast
  TGI: > 100 µM
NCI-H226 lung
  TGI: > 100 µM
MOLT-4 leukemia
  TGI: > 100 µM
MCF7 breast
  TGI: > 100 µM
U251 CNS
  TGI: > 100 µM
RXF 393 renal
  TGI: > 100 µM
OVCAR-5 ovarian
  TGI: > 100 µM
DU-145 prostate
  TGI: > 100 µM
A549 NSCLC
  TGI: > 100 µM
SK-MEL-28 melanoma
  TGI: > 100 µM
TK-10 renal
  TGI: > 100 µM
786-0 renal
  TGI: > 100 µM
SK-MEL-2 melanoma
  TGI: > 100 µM
HCT-116 colon
  TGI: > 100 µM
HCT-15 colon
  TGI: > 100 µM
LOX IMVI melanoma
  TGI: > 100 µM
SF-268 CNS
  TGI: > 100 µM
NCI-H23 lung
  TGI: > 100 µM
UACC-257 melanoma
  TGI: > 100 µM
HCC-2998 colon
  TGI: > 100 µM
SK-OV-3 ovarian
  TGI: > 100 µM
SN12C renal
  TGI: > 100 µM
IGROV1 ovarian
  TGI: > 100 µM
HOP-62 NSCLC
  TGI: > 100 µM
M14 melanoma
  TGI: > 100 µM
MALME-3M melanoma
  TGI: > 100 µM
OVCAR-4 ovarian
  TGI: > 100 µM
COLO 205 colon
  TGI: > 100 µM
T-47D breast
  TGI: > 100 µM
SF-295 CNS
  TGI: > 100 µM
OVCAR-3 ovarian
  TGI: > 100 µM
KM12 colon
  TGI: > 100 µM
NCI/ADR-RES ovarian
  TGI: > 100 µM
MDA-MB-231 breast
  TGI: > 100 µM

## O=C1/C(=C/c2ccccc2)N=C(c2ccccc2)N1C1Nc2cc3c(cc2S1)NC(N1C(=O)/C(=C/c2ccccc2)N=C1c1ccccc1)S3 (stereo unspecified)
ACHN renal
  TGI: > 100 µM
CAKI-1 renal
  TGI: > 100 µM
HOP-92 NSCLC
  TGI: 8.27 µM
MDA-MB-435
  TGI: 47.1 µM
SW-620 colon
  TGI: 78.5 µM
EKVX NSCLC
  TGI: > 100 µM
A498 renal
  TGI: 68 µM
SK-MEL-5 melanoma
  TGI: > 100 µM
NCI-H460 lung
  TGI: > 100 µM
HT29 colon
  TGI: > 100 µM
PC-3 prostate
  TGI: > 100 µM
NCI-H522 lung
  TGI: 62.3 nM
UO-31 renal
  TGI: > 100 µM
OVCAR-8 ovarian
  TGI: > 100 µM
CCRF-CEM leukemia
  TGI: > 100 µM
SR leukemia
  TGI: > 100 µM
HL-60(TB) leukemia
  TGI: > 100 µM
SF-539 CNS
  TGI: > 100 µM
K-562 leukemia
  TGI: > 100 µM
MDA-N
  TGI: > 100 µM
NCI-H226 lung
  TGI: > 100 µM
MOLT-4 leukemia
  TGI: 88.2 µM
MCF7 breast
  TGI: > 100 µM
U251 CNS
  TGI: > 100 µM
RXF 393 renal
  TGI: 54.3 µM
OVCAR-5 ovarian
  TGI: > 100 µM
DU-145 prostate
  TGI: > 100 µM
SK-MEL-28 melanoma
  TGI: > 100 µM
TK-10 renal
  TGI: > 100 µM
786-0 renal
  TGI: > 100 µM
SK-MEL-2 melanoma
  TGI: 77.5 µM
HCT-116 colon
  TGI: > 100 µM
HCT-15 colon
  TGI: 82.9 µM
LOX IMVI melanoma
  TGI: > 100 µM
SF-268 CNS
  TGI: > 100 µM
NCI-H23 lung
  TGI: 39.3 µM
UACC-257 melanoma
  TGI: > 100 µM
HCC-2998 colon
  TGI: 4.76 µM
SK-OV-3 ovarian
  TGI: > 100 µM
IGROV1 ovarian
  TGI: > 100 µM
HOP-62 NSCLC
  TGI: > 100 µM
M14 melanoma
  TGI: > 100 µM
OVCAR-4 ovarian
  TGI: > 100 µM
T-47D breast
  TGI: > 100 µM
SF-295 CNS
  TGI: > 100 µM
OVCAR-3 ovarian
  TGI: > 100 µM
KM12 colon
  TGI: 55.6 µM
RPMI-8226 leukemia
  TGI: 68.4 µM
NCI/ADR-RES ovarian
  TGI: > 100 µM
MDA-MB-231 breast
  TGI: > 100 µM
